Measurements from patent US20160176924A1, “MODIFIED PEPTIDES AS POTENT INHIBITORS OF THE PSD-95/NMDA RECEPTOR INTERACTION” (priority 2008, published 2016).
Numbered stars: 1 amine (or outer) side, 2 acyl side, 3 side chain; on linkers, the order of the positions; unused ones are H or OH. Bridge positions count the residues as written; N and C are the ends. Square brackets hold non-standard residues; d marks the D form. Ends that are not written are not given here. Peptide text beside a SMILES is read from it. I, II: the chains in the order shown. CO(CH2CH2O)9CH2CH2CO = O=C(CCOCCOCCOCCOCCOCCOCCOCCOCCOCCC(=O)[*:2])[*:1]; NMeE = CN[C@@H](CCC(=O)O)C(=O)O

Key:
[1] = Human blood plasma stability assay; type: in vitro ADME
Method: In this assay, the half-life (T1/2) of a compound in blood plasma is measured in vitro, whereby its susceptibility to degradation by proteases, peptidases and general plasma contents is quantified.
Compounds of interest were dissolved in human blood plasma (270 μl; 3H Biomedical, Sweden, cat no 1300-1-P50) to a concentration of 0.25 mM (30 μL of 2.5 mM) and incubated at 37° C. Aliquots (30 μl) were removed at various time intervals (0, 5, 10, 20, 40, 80, 160, 320, 960, 1280, 2550, 4560 and 7240 min) and quenched with 60 μL trichloroacetic acid (aq., 5%). The aliquots were vortexed, and incubated for at least 15 min, at 4° C. prior to centrifugation at 18,000 g for 2 min and the supernatant was analyzed by RP-HPLC to quantify the remaining compound (absorbance at 218 nm).

[2] = molecular target: T1, PDZ2 of PSD-95 (Homo sapiens, UniProt P78352); experiment: FP heterologous competition binding assay; settings: for Ki: FP competition, mean ± SEM, NA = no activity/affinity; for affinity to PDZ2, in words: FP assay
T1 construct: PDZ2 (residues 155-249); made in house; host or cells: E. coli BL21-DE3 pLysS
Source text: (§1) Determined IC50 values may be converted to Ki values.^5 Suitable fluorophores include either 5-FAM or Cy5, which may be coupled to a tripeptide (KSG or CSG) linker attached to the N-terminus of the undecapeptide, to give 5-FAM-NR2B, Cy5-NR2B, 5-FAM-CRIPT and Cy5-CRIPT. The 5-FAM fluorophore may be attached to the undecapeptides by coupling with HATU. The Cy5 fluorophore may be conjugated to the undecapeptides by coupling Cy5-maleimide to the cysteine side chain of the tripeptide sequence CSG attached to the N-terminus of the peptide, as detailed in the Methodology section.
(§2) To measure the affinities between non-fluorescent peptides and PDZ domains, heterologous competition bindings assay were performed. This was done by adding increasing concentrations of peptide to a fixed concentration of Cy5-NR2B, 5-FAM-NR2B, Cy5-CRIPT or 5-FAM-CRIPT (50 nM) and PDZ (20 μM for PDZ1, 3 μM for PDZ2 and 1-2 and 5 μM for PDZ3) in the same TBS buffer and conditions as described above. FP values were then fitted to the general equation: Y=Bottom+(Top−Bottom)/[1[…](10̂^X-logIC50)], where X is the logarithmic value of peptide concentration. Hereby the IC50 value was obtained, which is used to calculate the theoretical competitive inhibition constant, Ki.^5
(§3) A convenient and reliable way to examine interactions between peptide analogues and PDZ domains is by using a fluorescence polarization (FP) assay. The three PDZ domains, PDZ1-3, of PSD-95 were expressed individually as set out above, while PDZ1-2 was also expressed as a tandem construct. […] IC50 values were then converted to Ki values.^5

[3] = molecular target: T2, PDZ1-2 tandem of PSD-95 (Homo sapiens, UniProt P78352); experiment: FP heterologous competition binding assay; settings: mean ± SEM
T2 construct: PDZ1-2 (residues 61-249) tandem; made in house; host or cells: E. coli BL21-DE3 pLysS
Source text: as §1, §2, §3

[4] = molecular target: T3, PDZ1 of PSD-95 (Homo sapiens, UniProt P78352); experiment: FP heterologous competition binding assay; settings: for Ki: FP competition, mean ± SEM, NA = no activity/affinity
T3 construct: PSD-95 PDZ1 (residues 61-151); made in house; host or cells: E. coli BL21-DE3 pLysS
Source text: as §1, §2, §3

[5] = molecular target: T4, PDZ3 of PSD-95 (Homo sapiens, UniProt P78352); experiment: FP heterologous competition binding assay; settings: FP competition; mean ± SEM; NA = no activity/affinity
T4 construct: PDZ3 (residues 309-401); made in house; host or cells: E. coli BL21-DE3 pLysS
Source text: as §1, §2, §3

[6] = human, plasma, Blood plasma half life (T1/2)

Q: With `CC[C@H](C)[C@H](NC(=O)CCOCCOCCOCCOCCOCCC(=O)N[C@H](C(=O)N[C@@H](C)C(=O)N[C@H](C(=O)N[C@@H](C)C(=O)N[C@H](C(=O)O)C(C)C)[C@@H](C)O)[C@@H](C)CC)C(=O)N[C@@H](C)C(=O)N[C@H](C(=O)N[C@@H](C)C(=O)N[C@H](C(=O)O)C(C)C)[C@@H](C)O` [(IATAV)2PEG4 (88), (IATAV)2PEG4] as the compound, how does the half-life at […] [1, 6] read?
A: 2.05 h

Q: And the Ki [2]?
A: 25 ± 0.88 µM

Q: And the Ki [3]?
A: 1.1 ± 0.07 µM

Q: For `CC(C)[C@H](NC(=O)[C@H](CC(=O)O)NC(=O)[C@H](CO)NC(=O)[C@H](CCC(=O)O)NC(=O)CCOCCOCCOCCOCCOCCOCCOCCOCCOCCC(=O)N[C@@H](CCC(=O)O)C(=O)N[C@@H](CO)C(=O)N[C@@H](CC(=O)O)C(=O)N[C@H](C(=O)O)C(C)C)C(=O)O` [Compound 85] (I: ESDV-OH / II: ESDV-OH; linker I:N-II:N via CO(CH2CH2O)9CH2CH2CO; C-terminus assumed), which Ki [3] is on record?
A: 1 ± 0.05 µM

Q: Which Ki [4] does the source give for `CCCN[C@@H](CCC(=O)O)C(=O)N[C@H](C(=O)N[C@@H](C)C(=O)N[C@H](C(=O)O)C(C)C)[C@@H](C)O` [Compound 53, N-Propyl-ETAV] here?
A: 7 ± 0.28 µM

Q: Which “degradation in human blood plasma, in words” value [1] does the source give for `CC[C@H](C)[C@H](NC(=O)CCOCCOCCOCCOCCOCCC(=O)N[C@H](C(=O)N[C@@H](C)C(=O)N[C@H](C(=O)N(C)[C@@H](C)C(=O)N[C@H](C(=O)O)C(C)C)[C@@H](C)O)[C@@H](C)CC)C(=O)N[C@@H](C)C(=O)N[C@H](C(=O)N(C)[C@@H](C)C(=O)N[C@H](C(=O)O)C(C)C)[C@@H](C)O` [(IATAMeV)2PEG4 (90), (IATAMeV)2PEG4] here?
A: no significant degradation could be detected over a time period of 6 days

Q: What about the half-life [1, 6] of the same compound?
A: > 133 h

Q: Which “fold increase in affinity (more potent) compared to NR2B peptide (1), PDZ1” value [4] does the source give for `CC(C)[C@H](NC(=O)[C@H](C)NC(=O)[C@@H](NC(=O)[C@H](CCC(=O)O)NCC1CCCCC1)C(C)O)C(=O)O` (some centres unmarked) [Compound 55, N-Cyclohexylmethyl-ETAV] here?
A: ca. 19 fold

Q: And the Ki [4]?
A: 1 ± 0.24 µM

Q: What about the Ki [5] of the same compound?
A: 21 ± 0.64 µM

Q: With IESDV-PEG4 [IESDV-PEG4 (91)] as the compound, how does the “fold increase in half life compared to non-pegylated peptide 7” value ([1]; human) read?
A: about 10 fold

Q: What about the “Blood plasma half life (T1/2)” value ([1]; human, plasma) of the same compound?
A: 10 h

Q: Which “affinity to PDZ2, in words” value [2] does the source give for EMeTQV ([NMeE]TQV) [Compound 39] here?
A: only slightly less potent

Q: What about the “fold increase in affinity (more potent) compared to NR2B peptide (1), PDZ1” value [4] of the same compound?
A: ca. 3 fold

Q: Which Ki [2] does the source give for `CC(C)[C@H](NC(=O)[C@H](C)NC(=O)[C@@H](NC(=O)[C@H](CCC(=O)O)NCCCc1ccccc1)C(C)O)C(=O)O` (some centres unmarked) [Compound 60, N-Phenylpropyl-ETAV] here?
A: 3.1 ± 0.31 µM

Q: What about the Ki [4] of the same compound?
A: 2.1 ± 0.35 µM

Q: Which Ki [5] does the source give for `CC(C)[C@H](NC(=O)[C@H](C)NC(=O)[C@@H](NC(=O)[C@H](C)N)[C@@H](C)O)C(=O)O` [ATAV (68), ATAV] (H-ATAV-OH; C-terminus assumed) here?
A: ≥ 400 µM

Q: For `CC[C@H](C)[C@H](NC(=O)CCOCCOCCOCCOCCOCCOCCOCCOCCOCCOCCOCCOCCOCCC(=O)N[C@H](C(=O)N[C@@H](C)C(=O)N[C@H](C(=O)N[C@@H](C)C(=O)N[C@H](C(=O)O)C(C)C)[C@@H](C)O)[C@@H](C)CC)C(=O)N[C@@H](C)C(=O)N[C@H](C(=O)N[C@@H](C)C(=O)N[C@H](C(=O)O)C(C)C)[C@@H](C)O` [(IATAV)2PEG12 (87), (IATAV)2PEG12], which half-life at […] [1, 6] is on record?
A: 3.05 h

Q: What about the Ki [2] of the same compound?
A: 13 ± 1.1 µM

Q: What about the Ki [3] of the same compound?
A: 1 ± 0.06 µM

Q: What does the source list for EMeTDV ([NMeE]TDV) [Compound 36]?
A: affinity to PDZ2, in words [2]: only slightly less potent; fold increase in affinity (more potent) compared to NR2B peptide (1), PDZ1 [4]: ca. 3 fold

Q: With `CC(C)[C@H](NC(=O)[C@H](C)NC(=O)[C@@H](NC(=O)[C@H](CCC(=O)O)NCCc1ccc(F)c(F)c1)C(C)O)C(=O)O` (some centres unmarked) [Compound 62] as the compound, how does the Ki [2] read?
A: 1 ± 0.043 µM

Q: And the Ki [4]?
A: ~1 µM

Q: For SDV, which “fold increase in Ki (loss of affinity) compared to NR2B peptide (1), PDZ2” value [2] is on record?
A: > 30 fold

Q: And the “fold increase in Ki (loss of affinity) compared to NR2B peptide (1), PDZ1” value [4]?
A: > 20 fold
